The term MIC denotes the smallest concentration in the dilution series that meets the test's criterion for growth inhibition.

The source of these data is US4479942A, “Tetrahydrofurnancarboxylic acid derivatives, processes for preparation thereof and pharmaceutical compositions thereof” (Fujisawa Pharmaceutical Co., Ltd., priority 1981, dated 1984).

Series [1] concerns Candida albicans OUT6004. Briefly: Antimicrobial activity test (in vitro), minimal inhibitory concentration against Candida, pulp assay method. Type of series: cell-based. The settings on record: malt agar. From the text:
Antimicrobial activity test (in vitro):
Minimal inhibitory concentration (MIC) against Candida: (Candida albicans OUT6004)
Method: Pulp assay method

The nature of series [2]: Toxicity, intraperitoneal administration into mice. The format is in vivo. The settings on record: more than 1,000 mg/kg.
For series [3], the system named is Candida albicans FP-620. Briefly: Minimal inhibitory concentration against Candida albicans, agar dilution method (FP-620). The format is cell-based. The note with it: FP620, malt agar. The source says: (§1) Antimicrobial activities of the compound in Example 98 [1-(6-amino-9H-purin-9-yl)-1,3-dideoxy-3-(O-methyl-L-tyrosylamino)-β- D-ribofuranuronic acid dihydrochloride monohydrate] against some species of Candida.
(§2) Minimal inhibitory concentration (MIC) against Candida albicans:
(§3) Method: Agar dilution method

Series [4] deals with Candida albicans FP-614. As to the kind of experiment: Minimal inhibitory concentration against Candida albicans, agar dilution method (FP-614). The format is cell-based. The settings on record: FP614, malt agar.
From the text: as §1, §2, §3

Series [5] deals with Candida albicans FP-633. As to the kind of experiment: Protective efficacy in experimental infection in mice. The format is in vivo, mice (ddY-strains). The settings on record: one hour after i.v. infection, one week after infection. The source says: Protective efficacy in experimental infection in mice:
In determining the protective efficacy against experimental infections of Candida in mice, the compound in Example 98 [1-(6-amino-9H-purin-9-yl)-1,3-dideoxy-3-(O-methyl-L-tyrosylamino)-β- D-ribofuranuronic acid dihydrochloride monohydrate] was suspended and diluted in sterile water to provide three concentrations of the drug for testing ddY-strains of mice aged 5 weeks and averaging 20 g in weight. Mice were used in groups of 5 mice each. One hour after the intravenous injection of 3.0×10^6 of Candida albicans FP-633 cells to each mouse, the drug solutions were administered subcutaneously or orally at the level mentioned below respectively.
One week after the infection, the test was considered complete and survival records of that day were made.

Series [6] deals with Candida albicans FP-633. As to the kind of experiment: Minimal inhibitory concentration against Candida albicans, agar dilution method (FP-633). Type of series: cell-based. The settings on record: FP633, malt agar.
From the text: as §1, §2, §3
Background: Agar dilution tests growth on a series of plates holding different concentrations.

Series [7] deals with Candida albicans FP-618. Briefly: Minimal inhibitory concentration against Candida albicans, agar dilution method (FP-618). Type of series: cell-based. The settings on record: FP618, malt agar.
From the text: as §1, §2, §3

Series [8] is described as follows: Solubilities to various solvents.
For series [9], the system named is Candida albicans FP-616. As to the kind of experiment: Minimal inhibitory concentration against Candida albicans, agar dilution method (FP-616). Type of series: cell-based. The note with it: FP616, malt agar.
From the text: as §1, §2, §3

In series [10] the test system is Candida albicans FP-622. Briefly: Minimal inhibitory concentration against Candida albicans, agar dilution method (FP-622). The format is cell-based. The note with it: FP622, malt agar.
From the text: as §1, §2, §3

Structures are written as SMILES. Values after ≈ are worked out from the molar mass of the structure shown.

For the molecule `Nc1ncnc2c1ncn2[C@@H]1O[C@H](C(=O)O)[C@@H](NC(=O)C(N)Cc2ccc([N+](=O)[O-])cc2)[C@H]1O` (mixture of isomers) [Example 73, 1-(6-Amino-9H-purin-9-yl)-1,3-dideoxy-3-[β-(4-nitrophenyl)-D,L-alanylamino]-β-D-ribofuranuronic acid], in [1], 31 µg/mL was the least that counted as inhibitory (MIC).

In the case of `Nc1ncnc2c1ncn2[C@@H]1O[C@H](C(=O)O)[C@@H](NC(=O)[C@@H](N)Cc2ccccc2)[C@H]1O` [Example 39, 1-(6-amino-9H-purin-9-yl)-1,3-dideoxy-3-(L-phenylalanylamino)-β-D-ribofuranuronic acid], the MIC in series [1] is 31 µg/mL (≈ 72.5 µM).

On to `COc1ccc(C[C@H](N)C(=O)N[C@H]2[C@@H](O)[C@H](n3cnc4c(N)ncnc43)O[C@@H]2C(=O)NCC(=O)O)cc1` [Example 55, N-Carboxymethyl-1-(6-amino-9H-purin-9-yl)-1,3-dideoxy-3-(O-methyl-L-tyrosylamino)-β-D-ribofuranuronamide], for which the MIC in series [1] turned out to be 31 µg/mL (≈ 60.3 µM).

On to `COc1ccc(C[C@H](N)C(=O)N[C@H]2[C@@H](O)[C@H](n3cnc4c(N)ncnc43)O[C@@H]2C(=O)O)cc1.Cl.Cl.O` [Example 98, 1-(6-Amino-9H-purin-9-yl)-1,3-dideoxy-3-(O-methyl-L-tyrosylamino)-β-D-ribofuranuronic acid dihydrochloride monohydrate], for which, in series [2], the Toxic symptom entry is “did not result in any toxic symtom”. Also, the minimum inhibitory concentration (MIC) in [3] turned out to be 0.2 µg/mL; in series [4], 0.8 µg/mL; in series [1] it was 16 µg/mL; in [6] it was 1.6 µg/mL; in series [7], 0.8 µg/mL; in series [9], 0.2 µg/mL. Also, the MIC in series [10] came to 3.1 µg/mL. Moreover, the Survival/infected in [5] (oral, 10 mg/kg) is 1/5; in [5] (oral, 30 mg/kg) it was 3/5; in series [5] (subcutaneous, 5 mg/kg), 1/5; in series [5] (subcutaneous, 15 mg/kg), 4/5. The Solubility result in series [8] (acetone) was “Insoluble”; in [8] (chloroform), “Insoluble”; in series [8] (ethyl acetate) it was “Insoluble”; in [8] (methanol), “Slightly soluble”; in [8] (water), “Slightly soluble”.
